What was measured:
Test in all cases: Biochemical ATPase assay, mutant p97 vs WT
p97 D649A = target: T1, p97 D649A (Homo sapiens, UniProt P55072, D649A); conditions: recombinant p97 with D649A mutation
T1 construct: His-tag; made in house; host or cells: E. coli B121[DE3]; (so in the source)
Protocol: (§1) Proteins were expressed in the B121[DE3] strain of E. coli and purified using His-tag mediated nickel purification and gel filtration chromatography.
(§2) ATPase activity of p97 was measured using an ATP regenerating enzymatic system that couples the conversion of phosphoenolpyruvate (PEP) to pyruvate by pyruvate kinase with ADP conversion to ATP. Pyruvate is then converted to lactate by lactate dehydrogenase, which is coupled to the conversion of NADH to NAD^+. The loss of NADH is measured by a decrease in optical absorbance as […] allowing for real-time measurement of ATPase activity. Dose titrations of a test compound were added to the p97 ATPase assay and ATPase activity was monitored. The rate of ATPase activity was fit to four-parameter sigmoidal curve to calculate IC50 of test compound. IC50 values of test compounds for wild type p97 were compared to IC50 values of mutant proteins to identify fold-changes in the potency of test compounds for mutant p97.

p97 Q473P = target: T2, p97 Q473P (Homo sapiens, UniProt P55072, Q473P); conditions: recombinant p97 with Q473P mutation
T2 construct: His-tag; made in house; host or cells: E. coli B121[DE3]; (so in the source)
Protocol: as §1, §2

p97 A659T = target: T3, p97 A659T (Homo sapiens, UniProt P55072, A659T); conditions: recombinant p97 with A659T mutation
T3 construct: His-tag; made in house; host or cells: E. coli B121[DE3]; (so in the source)
Protocol: as §1, §2

p97 E470D = target: T4, p97 E470D (Homo sapiens, UniProt P55072, E470D); conditions: recombinant p97 with E470D mutation
T4 construct: His-tag; made in house; host or cells: E. coli B121[DE3]; (so in the source)
Protocol: as §1, §2

p97 G481A = target: T5, p97 G481A (Homo sapiens, UniProt P55072, G481A); conditions: recombinant p97 with G481A mutation
T5 construct: His-tag; made in house; host or cells: E. coli B121[DE3]; (so in the source)
Protocol: as §1, §2

p97 T688A = target: T6, p97 T688A (Homo sapiens, UniProt P55072, T688A); conditions: recombinant p97 with T688A mutation
T6 construct: His-tag; made in house; host or cells: E. coli B121[DE3]; (so in the source)
Protocol: as §1, §2

T4 sequence (P55072 whole entry E470D): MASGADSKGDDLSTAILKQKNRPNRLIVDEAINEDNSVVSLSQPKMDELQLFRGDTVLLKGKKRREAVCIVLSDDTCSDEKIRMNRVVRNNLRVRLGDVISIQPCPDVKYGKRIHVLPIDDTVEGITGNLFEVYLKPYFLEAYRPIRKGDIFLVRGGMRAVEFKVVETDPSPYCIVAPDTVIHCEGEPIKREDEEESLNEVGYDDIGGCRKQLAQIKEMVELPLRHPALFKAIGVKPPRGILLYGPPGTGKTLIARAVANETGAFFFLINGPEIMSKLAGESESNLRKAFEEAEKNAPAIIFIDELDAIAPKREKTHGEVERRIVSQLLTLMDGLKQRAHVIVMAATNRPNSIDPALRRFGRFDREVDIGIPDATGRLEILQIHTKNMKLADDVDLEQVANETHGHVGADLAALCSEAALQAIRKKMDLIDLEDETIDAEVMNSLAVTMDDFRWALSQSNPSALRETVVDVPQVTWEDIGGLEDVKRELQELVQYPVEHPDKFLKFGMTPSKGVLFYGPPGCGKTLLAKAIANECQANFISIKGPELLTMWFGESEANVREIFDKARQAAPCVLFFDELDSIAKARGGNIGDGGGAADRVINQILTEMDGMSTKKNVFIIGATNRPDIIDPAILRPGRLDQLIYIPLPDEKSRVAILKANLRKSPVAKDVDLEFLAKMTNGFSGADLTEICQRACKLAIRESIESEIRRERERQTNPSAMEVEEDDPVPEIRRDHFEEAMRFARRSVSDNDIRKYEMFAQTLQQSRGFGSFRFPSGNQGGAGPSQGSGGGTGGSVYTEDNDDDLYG
T5 sequence (P55072 whole entry G481A): as the sequence (P55072 whole entry E470D) above, with D470E, G481A counted along it
T6 sequence (P55072 whole entry T688A): as the sequence (P55072 whole entry E470D) above, with D470E, T688A counted along it
T2 sequence (P55072 whole entry Q473P): as the sequence (P55072 whole entry E470D) above, with D470E, Q473P counted along it
T3 sequence (P55072 whole entry A659T): as the sequence (P55072 whole entry E470D) above, with D470E, A659T counted along it
T1 sequence (P55072 whole entry D649A): as the sequence (P55072 whole entry E470D) above, with D470E, D649A counted along it

Fold Change in IC50 compared to WT Protein (p97 D649A): 67.0 fold
Fold Change in IC50 compared to WT Protein (p97 Q473P): 0.3 fold
Fold Change in IC50 compared to WT Protein (p97 A659T): 110.0 fold
Fold Change in IC50 compared to WT Protein (p97 E470D): 15.4 fold
Fold Change in IC50 compared to WT Protein (p97 G481A): 4.1 fold
Fold Change in IC50 compared to WT Protein (p97 T688A): 363.0 fold
SMILES: COc1nc2c(C(N)=O)cccc2n1-c1nc2c(c(NCc3ccccc3)n1)CCCC2 [Compound 5, 1-[4-(benzylamino)-5,6,7,8-tetrahydroquinazolin-2-yl]-2-methoxy-1H-1,3-benzodiazole-4-carboxamide]

Source: patent publication US20170159101A1, “DRUG-RESISTANT P97 ATPASE MUTATIONS” (Cleave Biosciences, Inc., priority 2014, published 2017)
